Results from patent publication US5824652A, “Heterocyclic acyldipeptides, processes for the preparation thereof and pharmaceutical compositions containing the same” (Univerza v Ljubljani, Fakulteta za naravoslovje in …, priority 1993, dated 1998).

Assays:
B-16 melanoma = test: Antitumor activity, solid subcutaneous B-16 melanoma; format: in vivo, C57B1/6 strain mice; conditions: 10 mg/kg on five consecutive days, started 24 hours after tumor induction; for Animals with complete regression of tumors: still without tumors on day 20
Experimental: Solid subcutaneous B-16 melanoma were used on C57B1/6 strain mice of 8 to 10 weeks. The tumors were implanted by injection of 3×10^5 live tumor cells into the left lower abdomen of mice. The suspension of tumor cells was prepared in ENAM (Eagle's Minimal Essential Medium, Sigma Chemical Co., St. Louis, Mo., U.S.A.) enriched with 2% foetal calf serum (FCS, Sigma). Tumor cells (B-16 melanoma tumor cells, clone F1, ATCC, Rockville, Md.) for implantation into test animals were grown in vitro in a cell culture. The application of the test substances was started 24 hours after the tumor induction. The test substance was injected five times on five consecutive days in a dose of 10 mg/kg, the dose of Nopia was 1 mg/kg of test animals daily (a fivefold human dose). The antitumor activity of the active compounds was monitored by recording the tumor emergence, daily measuring the tumor diameters and calculating the tumour volumes.

lymphocytes B = test: Determination of haemolytic plaques for the assessment of the maturation of lymphocytes B; format: in vivo; conditions: mice immunized with sheep erythrocytes, n = 5
Experimental: A suspension of sheep erythrocytes (Institute of Microbiology, Faculty of Medicine, Ljubljana, Slovenia) in physiological saline (10^8 /ml) was used for the immunization. […] Romurtide was dissolved in a solution of D-manitol (45 mg/ml; Nopia) and compound 1 was dissolved in physiological saline. The immunization was completed on day 5 after the administration of sheep erythrocytes and the mice were sacrificed. Their spleens were removed and homogenized in Gibco 199 medium. The lymphocytes were separated on the Ficol separating medium (Pharmacia, Uppsala, Sweden). After repeated rinsing with Gibco 199 medium, the cells were resuspended in RPMI 1640 nutrient medium with added 10% of foetal calf serum and streptomycin. To 50 μl of the cell suspension, 450 μl of trypan blue were added and the cells were counted in Neubauer's chamber. The number of lymphocytes per ml of the cell suspension was calculated. To 100 μl of the diluted cell suspension, there were added 200 μl of the RPMI 1640 nutrient medium, 50 μl of a 10% suspension of sheep erythrocytes and 50 μl of guinea pig complement (Institute for Microbiology, Faculty of Medicine, Ljubljana, Slovenia). The reaction mixture (RM) was put into the prepared chambers on the slide, the chambers were sealed with white wax and incubated at 37° C. for 60 minutes. After the completion of the incubation, the plaques were counted under microscope. The number of plaques per 1×10^6 cells was calculated according to the following equations: [formula] In the table, the values are presented as stimulation indexes (number of plaques in the test group/number of plaques in the control group).

[1] = Toxicity, average lethal dose (LD50); format: in vivo; conditions: male mice, intravenous application
[2] = Pyrogenous activity according to the method of USPXXII; format: in vivo
Experimental: The pyrogenous activity was determined according to the method of USPXXII.

Candida albicans = test: Immunorestoration test (cyclophosphamide-immunosuppressed mice challenged with Candida albicans); format: in vivo; conditions: for Number of survivals: Candida albicans challenge, n = 10
Experimental: The test substance or a vehicle was administered i.p. to groups of 10 mice on days 1, 3 and 5 of the experiment in four different doses (0.1, 1, 10 and 100 mg/kg). Cyclophosphamide (30 mg/kg) was administered p.o. on days 2, 4, and 6. One day after the last immunosuppressant (cyclophosphamide) dose, the mice were challenged with a suspension of Candida albicans sufficient to result in the mortality of a predominant number of the animals.

[3] = 0.1 mg/kg × 3 i.p. + cyclophosphamide 30 mg/kg p.o.
[4] = 1 mg/kg × 3 i.p. + cyclophosphamide 30 mg/kg p.o.
[5] = 10 mg/kg × 3 i.p. + cyclophosphamide 30 mg/kg p.o.
[6] = 100 mg/kg × 3 i.p. + cyclophosphamide 30 mg/kg p.o.

For C[C@H](NC(=O)C1(C)Oc2ccccc2N(C)C1=O)C(=O)N[C@H](CCC(=O)O)C(N)=O (stereo partly drawn) [Compound 4, (2S)-N-(3,4-dihydro-2,4-dimethyl-3-oxo-2H-1,4-benzoxazine-2-carbonyl)-L-alanyl-D-isoglutamine], the “Animals with complete regression of tumors” value (B-16 melanoma) was “one of nine animals”.
For C[C@H](NC(=O)C1(C)Oc2ccccc2N(C)C1=O)C(=O)N[C@H](CCC(=O)O)C(N)=O (stereo partly drawn) [Compound 1, N-(3,4-Dihydro-2,4-dimethyl-3-oxo-2H-1,4-benzoxazine-2-carbonyl)-L-alanyl-D-isoglutamine], the “Stimulation index (number of plaques in the test group/number of plaques in the control group)” value (lymphocytes B; dose 1 μ/mouse) was 3.64, the “Stimulation index (number of plaques in the test group/number of plaques in the control group)” value (lymphocytes B; dose 10 μ/mouse) was 5.32 and the “average lethal dose (LD50)” value [1] was over 250 mg/kg. For the same molecule, the Pyrogenous activity [2] was “did not show any pyrogenous activity”, the Number of survivals (Candida albicans; [3]) was 6 and the Number of survivals (Candida albicans; [4]) was 6. The Number of survivals (Candida albicans; [5]) was 7, the Number of survivals (Candida albicans; [6]) was 6 and the “Dose achieving the immunorestorative effect, times lower in comparison with the related compounds of U.S. Pat. No. 5,231,216” value (Candida albicans; comparison across i.p. doses 0.1-100 mg/kg) was “up to 100 times”. For the same molecule, the “Immunorestorative activity compared with romurtide” value (Candida albicans; mouse, in vivo) was “superior to that of the MDP analogue romurtide”.
O=P1(N(CCCl)CCCl)NCCCO1 (stereo not drawn) [Cyclophosphamide, reference compound] gave a Number of survivals (Candida albicans; cyclophosphamide alone 30 mg/kg × 3 p.o.) of 3.
For CCCCCCCCCCCCCCCCCC(=O)NCCCC[C@H](NC(=O)CC[C@@H](NC(=O)[C@H](C)NC(=O)[C@@H](C)O[C@H]1[C@H](O)[C@@H](CO)OC(O)[C@@H]1NC(C)=O)C(N)=O)C(=O)O (stereo partly drawn) [Romurtide, romurtide, reference compound], the “Stimulation index (number of plaques in the test group/number of plaques in the control group)” value (lymphocytes B; dose 1 μ/mouse) was 1.06, the “Stimulation index (number of plaques in the test group/number of plaques in the control group)” value (lymphocytes B; dose 10 μ/mouse) was 1.92 and the Number of survivals (Candida albicans; [3]) was 5.
For C[C@@H](NC(=O)C1(C)Oc2ccccc2NC1=O)C(=O)N[C@H](CCC(=O)O)C(N)=O (stereo partly drawn) [Compound 2, (2R)-N-(3,4-dihydro-2-methyl-3-oxo-2H-1,4-benzoxazine-2-carbonyl)-L-alanyl-D-isoglutamine], the “Animals with complete regression of tumors” value (B-16 melanoma) was “two of eight animals”.
For C[C@H](NC(=O)C1(C)Oc2ccccc2NC1=O)C(=O)N[C@H](CCC(=O)O)C(N)=O (stereo partly drawn) [Compound 3, N-(3,4-dihydro-2-methyl-3-oxo-2H-1,4-benzoxazine-2-carbonyl)-L-alanyl-D-isoglutamine], the “Animals still without tumors on day 20 after the tumor induction” value (B-16 melanoma) was “three animals of nine”.
CCCCCCCCCCCC(=O)N[C@@H]1CCCC[C@H]1OCC(=O)N[C@@H](C)C(=O)N[C@H](CCC(=O)O)C(N)=O [U.S. 5,231,216, N[trans2-(2dodecanoylaminocyclohexyloxy)acetyl)L-alanyl-D-isoglutamine, reference compound] showed a Number of survivals (Candida albicans; [3]) of 2, a Number of survivals (Candida albicans; [4]) of 5 and a Number of survivals (Candida albicans; [5]) of 6. It also gave a Number of survivals (Candida albicans; [6]) of 6.
